Results: patent US20260184712A1, “Heterocyclic Compounds as ENT Inhibitors and Compounds for Use in the Treatment of Cancers” (iTeos Belgium SA, priority 2022, published 2026)

How the values were obtained:
Format in all cases: cell-based
[1] = test system: stimulated primary human T cells; assay: T cell proliferation assay, Condition B (X-VIVO15, 2% HSA and 0.1% AAG); conditions: Homo sapiens, T-cell, 96 h; Condition B: X-VIVO15 medium containing HSA and α1-Acid Glycoprotein; anti-CD3/anti-CD28 beads, ATP, 4 days; CFSE-lo T cells
Outline: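 CFSE-labelled CD3+ T cells from healthy donors (2×10^4/well) in X-VIVO15 with 2% HSA and 0.1% AAG were stimulated with anti-CD3/CD28 beads. After 30 min pre-incubation with inhibitor, ATP was added and cells were cultured 4 days at 37° C. Flow cytometry gave % CFSE^lo cells, with IC50/IC90 and pICF from curve fits.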

[2] = test system: stimulated primary human T cells; assay: T cell proliferation assay, Condition A (X-VIVO15); conditions: Homo sapiens, T-cell, 96 h; Condition A: X-VIVO15 medium; anti-CD3/anti-CD28 beads, ATP, 4 days; CFSE-lo T cells
Outline: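 CFSE-labelled human CD3+ T cells (2×10^4/well) in serum-free X-VIVO15 were activated with anti-CD3/CD28 beads (1 bead:2 cells), pre-incubated 30 min with inhibitor, then cultured with 100 uM ATP for 4 days at 37 °C. Flow cytometry measured %CFSE^lo cells, and IC50/IC90 came from log-concentration curve fits.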

Human ENT2 = target: T1, Human ENT2 (Homo sapiens, UniProt Q14542); assay: Adenosine uptake assay, ENT2-mediated transport in MDCKII cells; conditions: MDCKIIENT2-LV cells, probe adenosine 0.5 μM, pre-incubation 30 min, incubation 10 min
T1 construct: expressed in transfected cells
T1 sequence (Q14542 1-456): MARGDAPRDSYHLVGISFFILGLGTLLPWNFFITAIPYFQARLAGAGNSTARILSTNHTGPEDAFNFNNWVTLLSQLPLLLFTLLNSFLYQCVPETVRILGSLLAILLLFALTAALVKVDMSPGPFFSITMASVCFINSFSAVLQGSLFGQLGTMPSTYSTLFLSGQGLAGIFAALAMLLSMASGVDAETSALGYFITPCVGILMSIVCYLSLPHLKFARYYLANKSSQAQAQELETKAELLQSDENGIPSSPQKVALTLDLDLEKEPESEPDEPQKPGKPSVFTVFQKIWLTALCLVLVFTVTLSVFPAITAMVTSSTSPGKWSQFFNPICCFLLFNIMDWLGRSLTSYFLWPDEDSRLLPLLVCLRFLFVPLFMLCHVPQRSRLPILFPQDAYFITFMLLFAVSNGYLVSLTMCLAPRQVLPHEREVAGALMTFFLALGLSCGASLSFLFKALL
Method: The goal of this study was to determine the potency and selectivity of ENT1 inhibitors by measuring ENT1 and ENT2-mediated transport using an in vitro cellular uptake assay.
Human ENT1 and ENT2 transporters were stably expressed in Madin-Darby Canine Kidney II (MDCKII) cells via transduction. Cell lines overexpressing the relevant ENT1 or ENT2 molecules were preincubated with a dose range of the relevant compound for 30 minutes before introduction of the specific substrate at the concentration indicated in the Table assay parameters below. The transporter assay was conducted for the time specified in the Table assay parameters before the specific uptake of the substrate into the cells was quantified. Specific uptake was determined by comparing the uptake from the cells treated with the relevant compounds and the uptake by cells not overexpressing the transporter in question.
Specific uptake for each concentration of the test sample was normalized to the DMSO control value to generate a relative accumulation value (or relative transporter activity). Data were plotted against the log molar concentration of the test reagent used. IC50 values were generated with Prism version 9.4.1 and the following function: log(inhibitor) vs. response—Variable slope (four parameters).

Row | SMILES | IC50 [1] [nM] | IC50 [2] [nM] | IC50 (Human ENT2) [nM]
1 | C[C@H]1O[C@@H](n2c(NC3CCOCC3)nc3c(OCc4ccc(C#N)cc4)ncnc32)[C@H](O)[C@@H]1O [Compound 73] | 20 to 500 | < 1 | 20 to 1000
2 | C[C@H]1O[C@@H](n2cnc3c(N4CCc5ccc([N+](=O)[O-])cc5C4)ncnc32)[C@H](O)[C@@H]1O [Compound 151] | 20 to 500 | < 1 | > 1000
3 | C[C@H]1O[C@@H](n2cnc3c(OCc4ccc([N+](=O)[O-])cc4)ncnc32)[C@H](O)[C@@H]1O [Compound 166] | 20 to 500 | 1 to 20 | > 1000
4 | C[C@H]1O[C@@H](n2cnc3c(OCc4ccc(OC(F)F)cc4)ncnc32)[C@H](O)[C@@H]1O [Compound 173] | 20 to 500 | 1 to 20 | > 1000
5 | C[C@H]1O[C@@H](n2c(N[C@H]3CCC(F)(F)C3)nc3c(OCc4ccc(C#N)cc4)ncnc32)[C@H](O)[C@@H]1O [Compound 82] | 20 to 500 | < 1 | 20 to 1000
6 | C[C@H]1O[C@@H](n2cnc3c(SCc4ccc([N+](=O)[O-])cc4)ncnc32)[C@H](O)[C@@H]1O [Compound 147] | 20 to 500 | 1 to 20 | > 1000
7 | C[C@H]1O[C@@H](n2c(NC3CCOCC3)nc3c(OCc4ccc(OC(F)F)nc4)ncnc32)[C@H](O)[C@@H]1O [Compound 75] | 20 to 500 | < 1 | 20 to 1000
8 | C[C@H]1O[C@@H](n2c(NC3CCCC3)nc3c(OCc4ccc([N+](=O)[O-])cc4)ncnc32)[C@H](O)[C@@H]1O [Compound 6] | 1 to 20 | < 1 | 20 to 1000
9 | C[C@H]1O[C@@H](n2c(NC3CCC(O)CC3)nc3c(OCc4ccc([N+](=O)[O-])cc4)ncnc32)[C@H](O)[C@@H]1O (stereo partly drawn) [Compound 28] | 1 to 20 | < 1 | > 1000
10 | OCCOC[C@H]1O[C@@H](n2cnc3c(OCc4ccc(OC(F)(F)F)cc4)ncnc32)[C@H](O)[C@@H]1O [Compound 175] | 20 to 500 | 1 to 20 | > 1000
